Broadly, the Ki is a measure of affinity in units of concentration, obtained from inhibition or displacement.

The values below come from ChEMBL document CHEMBL1134555 (J Med Chem, 2001).

Each structure is given as a SMILES string.

The target of the assay is Nitric oxide synthase 1 (Rattus norvegicus, UniProt P29476). Nature of the assay: Inhibitory activity against recombinant rat nNOS.
Sequence of Nitric oxide synthase 1 (P29476 whole entry): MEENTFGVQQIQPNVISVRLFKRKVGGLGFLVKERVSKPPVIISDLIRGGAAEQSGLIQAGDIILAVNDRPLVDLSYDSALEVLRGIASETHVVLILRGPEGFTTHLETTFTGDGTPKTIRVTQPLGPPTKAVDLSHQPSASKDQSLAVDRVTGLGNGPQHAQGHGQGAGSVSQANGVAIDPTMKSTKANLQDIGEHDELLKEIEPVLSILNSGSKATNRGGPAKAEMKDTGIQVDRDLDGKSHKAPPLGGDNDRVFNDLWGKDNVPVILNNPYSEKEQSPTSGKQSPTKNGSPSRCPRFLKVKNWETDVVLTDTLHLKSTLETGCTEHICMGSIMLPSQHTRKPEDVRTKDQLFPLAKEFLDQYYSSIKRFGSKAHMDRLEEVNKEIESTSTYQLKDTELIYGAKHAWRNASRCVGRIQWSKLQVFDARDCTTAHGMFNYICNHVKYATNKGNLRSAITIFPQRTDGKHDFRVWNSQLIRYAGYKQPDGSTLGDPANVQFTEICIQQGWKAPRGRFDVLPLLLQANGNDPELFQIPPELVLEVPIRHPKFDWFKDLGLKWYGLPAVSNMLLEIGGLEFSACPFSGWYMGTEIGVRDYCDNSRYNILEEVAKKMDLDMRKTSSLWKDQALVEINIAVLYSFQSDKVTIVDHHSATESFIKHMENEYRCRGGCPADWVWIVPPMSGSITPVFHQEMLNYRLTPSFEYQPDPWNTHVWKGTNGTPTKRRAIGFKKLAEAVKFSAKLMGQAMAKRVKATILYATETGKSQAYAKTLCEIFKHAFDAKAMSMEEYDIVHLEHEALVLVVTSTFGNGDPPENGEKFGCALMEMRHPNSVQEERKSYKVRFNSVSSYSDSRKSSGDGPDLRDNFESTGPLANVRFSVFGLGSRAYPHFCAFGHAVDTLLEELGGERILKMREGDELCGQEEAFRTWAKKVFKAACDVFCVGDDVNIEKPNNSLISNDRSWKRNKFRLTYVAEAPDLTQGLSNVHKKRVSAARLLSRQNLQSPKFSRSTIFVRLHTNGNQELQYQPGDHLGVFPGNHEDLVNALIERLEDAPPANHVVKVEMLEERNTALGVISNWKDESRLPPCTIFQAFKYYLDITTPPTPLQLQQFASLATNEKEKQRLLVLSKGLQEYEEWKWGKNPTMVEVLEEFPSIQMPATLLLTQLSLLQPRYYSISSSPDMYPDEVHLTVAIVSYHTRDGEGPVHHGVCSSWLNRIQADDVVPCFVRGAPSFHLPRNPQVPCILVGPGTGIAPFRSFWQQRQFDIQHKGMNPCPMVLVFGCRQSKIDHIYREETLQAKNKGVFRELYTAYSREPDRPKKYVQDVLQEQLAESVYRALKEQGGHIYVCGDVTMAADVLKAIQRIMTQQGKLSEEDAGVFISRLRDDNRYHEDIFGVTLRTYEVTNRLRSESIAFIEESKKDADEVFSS

In the case of `N=C(NCCC[C@H](N)C(=O)NCCN)N[N+](=O)[O-]`, the inhibition constant Ki is 540 nM.

Take `N=C(NCCC[C@H](N)C(=O)NCCCCN)N[N+](=O)[O-]`: the inhibitory constant (Ki) is 350 nM.

Regarding `N=C(NCCC[C@H](N)C(=O)NCCCN)N[N+](=O)[O-]`, the inhibitory constant (Ki) was determined as 460 nM.
